According to ChEMBL document CHEMBL1151211, “Isolation, structure, absolute stereochemistry, and HIV-1 integrase inhibitory activity of integrasone, a novel fungal polyketide” (J Nat Prod, 2004):

Biological target: Human immunodeficiency virus type 1 integrase (Human immunodeficiency virus 1, UniProt Q7ZJM1)
Assay: Inhibition of HIV1 integrase strand transfer activity

Sequence of Human immunodeficiency virus type 1 integrase (Q7ZJM1 whole entry): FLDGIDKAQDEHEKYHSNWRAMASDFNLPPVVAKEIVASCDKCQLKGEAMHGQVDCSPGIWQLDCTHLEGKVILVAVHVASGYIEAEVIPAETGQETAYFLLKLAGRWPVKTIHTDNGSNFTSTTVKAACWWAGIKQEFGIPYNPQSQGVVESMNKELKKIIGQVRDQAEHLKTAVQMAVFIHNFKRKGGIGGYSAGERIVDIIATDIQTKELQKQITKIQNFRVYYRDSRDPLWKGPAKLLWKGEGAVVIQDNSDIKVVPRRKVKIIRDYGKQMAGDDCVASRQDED

CCCCCC[C@H]1OC(=O)C2=C1[C@@H](O)[C@@H]1O[C@@H]1[C@@H]2O [INTEGRASONE]
IC50: 41 µM
